These results are taken from PubChem BioAssay AID248 (DTP/NCI, 2004).

The assay relates to L1210 leukemia ip in BDF1 mice, survival T/C. Description: NCI In Vivo Anticancer Drug Screen. Data for tumor model L1210 Leukemia (intraperitoneal) in B6D2F1 (BDF1) mice. The settings on record: endpoint: mean survival time, higher = longer survival. Summed up:
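Transplantable tumor model; survival measured in treated vs vehicle control mice. Value = treated/control.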

Where [1] appears, read: dose: 100.0 mg/kg/injection, schedule: Q04DX002 (ip), vehicle: Klucel (hydroxypropylcellulose) (HPC).
The mark [2] stands for this setting: dose: 200.0 mg/kg/injection, schedule: Q04DX002 (ip), vehicle: Klucel (hydroxypropylcellulose) (HPC).
[3] abbreviates: dose: 100.0 mg/kg/injection, schedule: Q01DX001 (ip), vehicle: carboxymethylcellulose (CMC).
Where [4] appears, read: dose: 200.0 mg/kg/injection, schedule: Q01DX001 (ip), vehicle: carboxymethylcellulose (CMC).
Where [5] appears, read: dose: 400.0 mg/kg/injection, schedule: Q01DX001 (ip), vehicle: carboxymethylcellulose (CMC).
Where [6] appears, read: dose: 15.0 mg/kg/injection, schedule: Q01DX Z (ip), vehicle: carboxymethylcellulose (CMC).

Values joined by “and” are separate entries in the source; they are usually repeats but may differ in a detail not shown here. Identical values can stand only once. Inconclusive results and toxic doses are left out.

For the molecule `C[C@]12CC[C@H]3[C@@H](CC[C@]4(O)C[C@@H](O)CC[C@]34C=O)[C@@]1(O)CC[C@@H]2c1ccc(=O)oc1`, the T/C reads like this: (dose: 5.0 mg/kg/injection, schedule: Q01DX001 (ip), vehicle: saline) 96 % of control; (dose: 10.0 mg/kg/injection, schedule: Q01DX001 (ip), vehicle: saline) 95 % of control; (dose: 20.0 mg/kg/injection, schedule: Q01DX001 (ip), vehicle: saline) 104 % of control; (dose: 40.0 mg/kg/injection, schedule: Q01DX001 (ip), vehicle: saline) 98 % of control; (dose: 80.0 mg/kg/injection, schedule: Q01DX001 (ip), vehicle: saline) 95 % of control.

For `Nc1ncnc2nc(-c3ccc(C(=O)c4cccc(NC(=O)Nc5ccc(S(=O)(=O)F)cc5)c4)cc3)[nH]c12`, the T/C runs as follows: (dose: 37.5 mg/kg/injection, schedule: Q01DX001 (ip), vehicle: saline) 95 % of control; (dose: 75.0 mg/kg/injection, schedule: Q01DX001 (ip), vehicle: saline) 92 % of control; (dose: 150.0 mg/kg/injection, schedule: Q01DX001 (ip), vehicle: saline) 90 % of control.

Turning to `Cc1ccc(C(=O)n2c(Cl)c(C=O)c3ccccc32)cc1`, the T/C runs as follows: (dose: 50.0 mg/kg/injection, schedule: Q04DX002 (ip), vehicle: Klucel (hydroxypropylcellulose) (HPC)) 94 % of control; under setting [1], 97 % of control; under setting [2], 94 % of control.

Consider `O=C(OCc1ccccc1CN1CCOCC1)c1ccc([N+](=O)[O-])cc1`, for which the T/C was 105 % of control under setting [1]; 98 % of control under setting [2]; 98 % of control (dose: 400.0 mg/kg/injection, schedule: Q04DX002 (ip), vehicle: Klucel (hydroxypropylcellulose) (HPC)).

Regarding `CC1CN=C(c2ccc(NC(=O)c3ccc(C(=O)Nc4ccc(C5=NCC(C)N5)cc4)c(N)c3)cc2)N1` (stereo not given), the T/C by setting is: (dose: 15.0 mg/kg/injection, schedule: Q01DX Z (ip), vehicle: saline) 92 % of control; (dose: 30.0 mg/kg/injection, schedule: Q01DX Z (ip), vehicle: saline) 86 % of control; (dose: 62.5 mg/kg/injection, schedule: Q01DX010 (oral), vehicle: saline) 100 % of control; (dose: 125.0 mg/kg/injection, schedule: Q01DX010 (oral), vehicle: saline) 100 % of control; (dose: 250.0 mg/kg/injection, schedule: Q01DX010 (oral), vehicle: saline) 101 % of control; (dose: 500.0 mg/kg/injection, schedule: Q01DX010 (oral), vehicle: saline) 105 % of control.

Take `CCCCCCC(=O)N(CC(C)C)CC(C)C`: the T/C under setting [3] is 102 % of control; the T/C (dose: 100.0 mg/kg/injection, schedule: Q01DX009 (ip), vehicle: carboxymethylcellulose (CMC)) is 93 % of control and 106 % of control; the T/C (dose: 100.0 mg/kg/injection, schedule: Q04DX002 (ip), vehicle: carboxymethylcellulose (CMC)) was 97 % of control; the T/C (dose: 100.0 mg/kg/injection, schedule: Q04DX003 (ip), vehicle: carboxymethylcellulose (CMC)) is 109 % of control; the T/C under setting [4] was 100 % of control; the T/C (dose: 200.0 mg/kg/injection, schedule: Q01DX009 (ip), vehicle: carboxymethylcellulose (CMC)) was 104 % of control and 90 % of control. Moreover, the T/C (dose: 200.0 mg/kg/injection, schedule: Q04DX002 (ip), vehicle: carboxymethylcellulose (CMC)) is 102 % of control; the T/C (dose: 200.0 mg/kg/injection, schedule: Q04DX003 (ip), vehicle: carboxymethylcellulose (CMC)) was 102 % of control; the T/C under setting [5] was 90 % of control; the T/C (dose: 400.0 mg/kg/injection, schedule: Q04DX002 (ip), vehicle: carboxymethylcellulose (CMC)) is 100 % of control; the T/C (dose: 400.0 mg/kg/injection, schedule: Q04DX003 (ip), vehicle: carboxymethylcellulose (CMC)) is 100 % of control.

In the case of `COc1cc(Nc2c3ccccc3nc3ccccc23)ccc1NS(C)(=O)=O`, for the setting “dose: 10.0 mg/kg/injection, schedule: Q01DX009 (ip), vehicle: saline with Tween-80”, the T/C is 154 % of control.

In the case of `Oc1c2ccccc2cc2cnc3ccccc3c12`, the T/C was 107 % of control under setting [3], 103 % of control under setting [4] and 94 % of control under setting [5].

On to `C1CCC(N(CCN(C2CCCCC2)C2CCCCC2)C2CCCCC2)CC1`, for which the T/C by setting is: (dose: 25.0 mg/kg/injection, schedule: Q04DX013 (ip), vehicle: carboxymethylcellulose (CMC)) 100 % of control; (dose: 50.0 mg/kg/injection, schedule: Q04DX013 (ip), vehicle: carboxymethylcellulose (CMC)) 94 % of control; (dose: 100.0 mg/kg/injection, schedule: Q04DX013 (ip), vehicle: carboxymethylcellulose (CMC)) 96 % of control.

For the molecule `CC(Cl)CN1c2ccccc2Sc2ccc(Cl)cc21` (stereo not given), the T/C runs as follows: under setting [3], 97 % of control; under setting [4], 95 % of control; under setting [5], 92 % of control.

`CCCCCc1cc(O)c(C2CC(C)CCC2C(C)C)c(OC(=O)c2ccc([N+](=O)[O-])cc2[N+](=O)[O-])c1` (stereo not given): the T/C reads like this: (dose: 100.0 mg/kg/injection, schedule: Q04DX003 (ip), vehicle: Klucel (hydroxypropylcellulose) (HPC)) 104 % of control; (dose: 200.0 mg/kg/injection, schedule: Q04DX003 (ip), vehicle: Klucel (hydroxypropylcellulose) (HPC)) 88 % of control; (dose: 400.0 mg/kg/injection, schedule: Q04DX003 (ip), vehicle: Klucel (hydroxypropylcellulose) (HPC)) 88 % of control.

As to `COc1cccc(/C=N\O)c1`, the T/C (dose: 50.0 mg/kg/injection, schedule: Q01DX009 (ip), vehicle: saline) is 98 % of control; the T/C (dose: 50.0 mg/kg/injection, schedule: Q04DX003 (ip), vehicle: saline) is 95 % of control; the T/C (dose: 100.0 mg/kg/injection, schedule: Q01DX009 (ip), vehicle: saline) is 100 % of control; the T/C (dose: 100.0 mg/kg/injection, schedule: Q04DX003 (ip), vehicle: saline) is 95 % of control; the T/C (dose: 200.0 mg/kg/injection, schedule: Q01DX009 (ip), vehicle: saline) is 96 % of control; the T/C (dose: 200.0 mg/kg/injection, schedule: Q04DX003 (ip), vehicle: saline) was 101 % of control. In addition, the T/C by setting is: (dose: 400.0 mg/kg/injection, schedule: Q01DX009 (ip), vehicle: saline) 95 % of control; (dose: 400.0 mg/kg/injection, schedule: Q04DX003 (ip), vehicle: saline) 95 % of control.

`O=C(/C=C/C(=O)Nc1cccc(C2=NCCN2)c1)Nc1cccc(C2=NCCN2)c1`: the T/C was 94 % of control (dose: 3.75 mg/kg/injection, schedule: Q01DX Z (ip), vehicle: carboxymethylcellulose (CMC)); 94 % of control (dose: 7.5 mg/kg/injection, schedule: Q01DX Z (ip), vehicle: carboxymethylcellulose (CMC)); 94 % of control under setting [6].

For `CCCCNC(C)(C)C(SS)c1cccs1` (stereo not given), the T/C (dose: 100.0 mg/kg/injection, schedule: Q04DX003 (ip), vehicle: saline sonified) is 96 % of control; the T/C (dose: 200.0 mg/kg/injection, schedule: Q04DX003 (ip), vehicle: saline sonified) was 92 % of control; the T/C (dose: 400.0 mg/kg/injection, schedule: Q04DX003 (ip), vehicle: saline sonified) was 96 % of control.

Turning to `COc1ccc(C(O)(c2ccccc2)C(OC(=O)CCl)c2ccccc2)cc1` (stereo not given), the T/C (dose: 200.0 mg/kg/injection, schedule: Q01DX009 (ip), vehicle: saline with Tween-80) was 90 % of control.

Regarding `NC(N)=N/N=C/c1cccc(OCC(=O)O)c1`, the T/C under setting [6] was 87 % of control; the T/C (dose: 30.0 mg/kg/injection, schedule: Q01DX Z (ip), vehicle: carboxymethylcellulose (CMC)) was 92 % of control; the T/C (dose: 60.0 mg/kg/injection, schedule: Q01DX Z (ip), vehicle: carboxymethylcellulose (CMC)) was 92 % of control; the T/C (dose: 60.0 mg/kg/injection, schedule: Q01DX Z (oral), vehicle: carboxymethylcellulose (CMC)) is 100 % of control; the T/C (dose: 120.0 mg/kg/injection, schedule: Q01DX Z (ip), vehicle: carboxymethylcellulose (CMC)) was 94 % of control; the T/C (dose: 120.0 mg/kg/injection, schedule: Q01DX Z (oral), vehicle: carboxymethylcellulose (CMC)) was 100 % of control. The T/C is, setting by setting: (dose: 240.0 mg/kg/injection, schedule: Q01DX Z (oral), vehicle: carboxymethylcellulose (CMC)) 94 % of control; (dose: 480.0 mg/kg/injection, schedule: Q01DX Z (oral), vehicle: carboxymethylcellulose (CMC)) 100 % of control.

Turning to `NC(=S)NN=C1CCCC1`, the T/C runs as follows: (dose: 6.25 mg/kg/injection, schedule: Q04DX003 (ip), vehicle: saline) 96 % of control; (dose: 12.5 mg/kg/injection, schedule: Q04DX003 (ip), vehicle: saline) 94 % of control; (dose: 25.0 mg/kg/injection, schedule: Q04DX003 (ip), vehicle: saline) 94 % of control.
